Where two headings read alike, the source gives them in different places.

The values that follow come from patent US20100216802A1, “PTERIDINE DERIVATIVES AS POLO-LIKE KINASE INHIBITORS USEFUL IN THE TREATMENT OF CANCER” (CHROMA THERAPEUTICS LTD., priority 2006, published 2010).

In assay [1] the test system is U937 cell. Put plainly: Cell inhibition assay method B (tritiated thymidine incorporation, 72 hrs). It is filed as cell-based. To be noted: Homo sapiens, U-937, read-out: Inhibition of U937 cell proliferation (IC50, nM) (method B). How it is done:
(§1) Cell inhibition assays were carried out using either method A or method B
The plates were then incubated at 37° C., 5% CO2 for 72 hrs.
A tritiated thymidine incorporation assay was used as a measure of cell proliferation. In short, cells were incubated with 0.4 μCi/well for 4 hrs before harvesting onto filtermats. These were dried, meltilex scintillation sheets melted on, then sealed in bags and ^3H emission counted on a Trilux microbeta counter.
(In general: Uptake of a labelled nucleoside into DNA is a usual measure of proliferation.)

The target in assay [2] is T1, PLK1 (Homo sapiens, UniProt P53350).
T1 construct: purchased Invitrogen (Paisley, UK)
T1 sequence (P53350 whole entry): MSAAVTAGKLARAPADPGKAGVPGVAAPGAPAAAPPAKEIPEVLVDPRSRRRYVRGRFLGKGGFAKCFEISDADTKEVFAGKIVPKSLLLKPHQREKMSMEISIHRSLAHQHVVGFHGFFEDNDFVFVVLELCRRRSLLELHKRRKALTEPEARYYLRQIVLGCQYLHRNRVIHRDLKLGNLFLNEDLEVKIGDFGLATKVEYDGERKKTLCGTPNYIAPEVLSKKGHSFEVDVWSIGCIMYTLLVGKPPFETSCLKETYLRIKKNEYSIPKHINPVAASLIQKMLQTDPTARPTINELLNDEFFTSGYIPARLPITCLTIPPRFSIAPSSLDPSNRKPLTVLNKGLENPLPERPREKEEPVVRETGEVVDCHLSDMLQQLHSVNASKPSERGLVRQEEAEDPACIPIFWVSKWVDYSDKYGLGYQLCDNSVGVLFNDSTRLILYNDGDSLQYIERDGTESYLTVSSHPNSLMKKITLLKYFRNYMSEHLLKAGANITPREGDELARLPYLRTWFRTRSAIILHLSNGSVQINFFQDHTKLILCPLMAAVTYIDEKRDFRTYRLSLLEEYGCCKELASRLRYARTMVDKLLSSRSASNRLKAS
Briefly: PLK1 enzyme assay (Z'-LYTE, Invitrogen). It is filed as biochemical. How it is done: The ability of compounds to inhibit PLK-1 kinase activity was measured in an assay performed by Invitrogen (Paisley, UK). The Z′-LYTE™ biochemical assay employs a fluorescence-based, coupled-enzyme format and is based on the differential sensitivity of phosphorylated and non-phosphorylated peptides to proteolytic cleavage. The peptide substrate is labelled with two fluorophores—one at each end—that make up a FRET pair. In the primary reaction, the kinase transfers the gamma-phosphate of ATP to a single serine or threonine residue in a synthetic FRET-peptide. In the secondary reaction, a site-specific protease recognizes and cleaves non-phosphorylated FRET-peptides. Phosphorylation of FRET-peptides suppresses cleavage by the Development Reagent. Cleavage disrupts FRET between the donor (i.e., coumarin) and acceptor (i.e., fluorescein) fluorophores on the FRET-peptide, whereas uncleaved, phosphorylated FRET-peptides maintain FRET. A […] method, which calculates the ratio (the Emission Ratio) of donor emission to acceptor emission after excitation of the donor fluorophore at 400 nm, is used to quantitate reaction progress.
The assay is performed at an ATP concentration at, or close to, the Km. After the 60 minute Kinase Reaction incubation at RT, 5 μL of a 1:8 dilution of Development Reagent is added. The assay plate is incubated for a further 60 minutes at RT and read on a fluorescence plate reader.
Duplicate data points are generated from a ⅓ log dilution series of a stock solution of test compound in DMSO. Nine dilutions steps are made from a top concentration of 10 μM, and a ‘no compound’ blank is included. Data is collected and analysed using XLfit software from IDBS.

Assay [3] has as its system HCT 116 cell line. Put plainly: Cell inhibition assay method A (WST-1, 120 hrs). It is filed as cell-based. Particulars: Homo sapiens, HCT-116, method A, read-out: Inhibitor Activity vs HCT 116 cell line (method A). How it is done:
as §1
Cells were seeded in 96W tissue culture plates (1 well=30 mm^2) at a density of […] per well in 50 μL of the appropriate culture medium (see below). 24 hrs later […] of the compound prepared in the same medium was added as 4 fold dilutions to give final concentrations in the range 0.15 nM-2500 nM (n=6 for each concentration). The plates were then incubated at 37° C., 5% CO2 for 120 hrs. Cell proliferation was assessed using WST-1 (a metabolic indicator dye, Roche Cat no. 1 644 807) according to the manufacturers instructions. The results were calculated as percentage of vehicle response and IC50 values represent the concentration of compound that inhibited the vehicle response by 50%.
HCT-116 culture medium —Dulbeccos MEM (Sigma D6546) plus 10% heat inactivated fetal calf serum (Hyclone SH30071 Thermo Fischer Scientific) containing 2 mM Glutamine (Sigma cat no G-7513) and 50 U/ml Penicillin and Streptomycin Sulphate (Sigma Cat no P-0781).
(In general: Tetrazolium dyes change colour on reduction, which living cells bring about.)

Setting [4] is: ATP at or close to Km, read-out: Inhibitor Activity vs PLK1.

As for `CC[C@@H]1C(=O)N(C)c2cnc(Nc3ccc(C(=O)NC4CCN(CC[C@H](N)C(=O)OC5CCCC5)CC4)cc3OC)nc2N1C1CCCC1` [Example 22, Cyclopentyl (2S)-2-amino-4-{4-[(4-{[(7R)-8-cyclopentyl-7-ethyl-5-methyl-6-oxo-5,6,7,8-tetrahydropteridin-2-yl]amino}-3-methoxybenzoyl)amino]piperidin-1-yl}butanoate], the IC50 in assay [1] is 0.09 nM; in assay [2] (setting [4]), less than 100 nM; in assay [2] (ester (for Compound 1: the compound itself, one cell spans ester/acid), read-out: Inhibition of PLK (IC50, nM) ester), 6 nM; in assay [3] it was less than 100 nM.
Take `CC[C@@H]1C(=O)N(C)c2cnc(Nc3ccc(C(=O)NC4CCN(CCC[C@H](N)C(=O)OC5CCCC5)CC4)cc3OC)nc2N1C1CCCC1` [Example 24, Cyclopentyl 5-{4-[(4-{[(7R)-8-cyclopentyl-7-ethyl-5-methyl-6-oxo-5,6,7,8-tetrahydropteridin-2-yl]amino}-3-methoxybenzoyl)amino]piperidin-1-yl}-L-norvalinate]: the IC50 in assay [2] (setting [4]) and in assay [3] was less than 100 nM each time.
As for `CC[C@@H]1C(=O)N(C)c2cnc(Nc3ccc(C(=O)NC4CCN(CC[C@H](N)C(=O)OC(C)(C)C)CC4)cc3OC)nc2N1C1CCCC1` [Example 25, t-Butyl (2S)-2-amino-4-{4-[(4-{[(7R)-8-cyclopentyl-7-ethyl-5-methyl-6-oxo-5,6,7,8-tetrahydropteridin-2-yl]amino}-3-methoxybenzoyl)amino]piperidin-1-yl}butanoate], the IC50 in assay [2] (setting [4]) and in assay [3] was less than 100 nM each time.
On to `CC[C@@H]1C(=O)N(C)c2cnc(Nc3ccc(C(=O)NC4CCN(CC[C@H](N)C(=O)OC(C)(C)C)CC4)cc3C)nc2N1C1CCCC1` [Example 26, t-Butyl (2S)-2-amino-4-{4-[(4-{[(7R)-8-cyclopentyl-7-ethyl-5-methyl-6-oxo-5,6,7,8-tetra hydropteridin-2-yl]amino}-3-methylbenzoyl)amino]piperidin-1-yl}butanoate], for which the IC50 in assay [2] (setting [4]) and in assay [3] was less than 100 nM in each case.
With `CC[C@@H]1C(=O)N(C)c2cnc(Nc3ccc(C(=O)NC4CCN(CCC[C@@H](N)C(=O)OC5CCCC5)CC4)cc3OC)nc2N1C1CCCC1` [Example 27, Cyclopentyl 5-{4-[(4-{[(7R)-8-cyclopentyl-7-ethyl-5-methyl-6-oxo-5,6,7,8-tetrahydropteridin-2-yl]amino}-3-methoxybenzoyl)amino]piperidin-1-yl}-D-norvalinate], the IC50 in assay [2] (setting [4]) and in assay [3] was less than 100 nM each time.
In the case of `CC[C@@H]1C(=O)N(C)c2cnc(Nc3ccc(C(=O)NC4CCN(CC[C@H](N)C(=O)OC5CCCC5)CC4)cc3C)nc2N1C1CCCC1` [Example 28, Cyclopentyl (2S)-2-amino-4-(4-[(4-{[(7R)-8-cyclopentyl-7-ethyl-5-methyl-6-oxo-5,6,7,8-tetra hydropteridin-2-yl]amino}-3-methylbenzoyl)amino]piperidin-1-yl}butanoate], the IC50 in assay [2] (setting [4]) and in assay [3] was less than 100 nM throughout.
As for `CC[C@@H]1C(=O)N(C)c2cnc(Nc3ccc(C(=O)NC4CCN(CC[C@H](N)C(=O)OC(C)(C)C)CC4)cc3F)nc2N1C1CCCC1` [Example 29, t-Butyl (2S)-2-amino-4-{4-{(4-{[(7R)-8-cyclopentyl-7-ethyl-5-methyl-6-oxo-5,6,7,8-tetrahydropteridin-2-yl]amino}-3-fluorobenzoyl)amino]piperidin-1-yl}butanoate], the IC50 in assay [2] (setting [4]) and in assay [3] was less than 100 nM in each case.
Consider `CC[C@@H]1C(=O)N(C)c2cnc(Nc3ccc(C(=O)NC4CCN(CC[C@H](N)C(=O)OC5CCCC5)CC4)cc3F)nc2N1C1CCCC1` [Example 30, Cyclopentyl (2S)-2-amino-4-{4-[(4-{[(7R)-8-cyclopentyl-7-ethyl-5-methyl-6-oxo-5,6,7,8-tetra hydropteridin-2-yl]amino}-3-fluorobenzoyl)amino]piperidin-1-yl}butanoate], for which the IC50 in assay [2] (setting [4]) and in assay [3] was less than 100 nM throughout.
As for `CC[C@@H]1C(=O)N(C)c2cnc(Nc3ccc(C(=O)NC4CCN(CC[C@@H](N)C(=O)OC5CCCC5)CC4)cc3OC)nc2N1C1CCCC1` [Example 31, Cyclopentyl (2R)-2-amino-4-{4-[(4-{((7R)-8-cyclopentyl-7-ethyl-5-methyl-6-oxo-5,6,7,8-tetra hydropteridin-2-yl]amino}-3-methoxybenzoyl)amino]piperidin-1-yl}butanoate], the IC50 in assay [2] (setting [4]) and in assay [3] was less than 100 nM in each case.
